The results in this text go back to patent US8481547B2, “Substituted benzothiazole and benzoxazole derivatives useful as inhibitors of DPP-1” (Janssen Pharmaceutica NV, priority 2009, dated 2013).

SMILES strings stand for the structures. Structures can show the parent of a compound that is named as a salt.

In this assay the target is T1, recombinant human DPP-1 (Cathepsin C) (Homo sapiens, UniProt P53634).
T1 construct: made in house
Put plainly: DPP-1 Inhibition Assay (In Vitro). The assay is classed as biochemical. As to conditions: fluorogenic substrate GR-AMC 10 uM, 0.15 nM DPP-1, pH 7.0, room temperature; average value where tested multiple times. As to the method:
Test compounds were assessed for DPP-1 (Cathepsin C) inhibitory activity using a fluorogenic substrate, GR-AMC (Glycine-Arginine-amino-4-methylcoumarin, Bachem, 1-1215). The amount of amino-methylcoumarin released is proportional to the DPP-1 activity, and the reaction is monitored kinetically with a Molecular Devices plate reader using black 96-well plates.
All compounds were tested under room temperature conditions. The assay buffer consisted of 50 mM HEPES, pH 7.0, 100 mM NaCl, 2 mM glutathione (GSH), and 0.002% TWEEN 20. GSH and TWEEN 20 were added to the buffer fresh daily. Just prior to use, an in-house preparation of recombinant human DPP-1 (240 μM stock, MW 49.6 kD) was diluted 600-fold in assay buffer containing fresh 2 mM dithiothreitol (DTT) to activate the enzyme, then diluted into assay buffer (without DTT) 133-fold for a DPP-1 working solution of 3 nM. Test compounds were diluted in DMSO for 20× their final assay concentrations.
Additions to a 96-well black Costar 3915 plates were as follows: 90 μL of 11 μM GR-AMC, 5 μL test compound (followed by mixing), and 5 μL 3 nM DPP1 to start the reaction. Fluorescent reactions were monitored kinetically at 360 nm excitation, 440 nm emission on a Molecular Devices Spectramax XPS reader. The Softmax Pro software of the reader determined the initial velocity of the selected data (the first 3-5 minutes of the reaction), and the best linear regression fit of the initial kinetic data. Final assay conditions were 0.15 nM DPP-1, 10 uM GR-AMC, 50 mM HEPES, pH 7.0, 100 mM NaCl, 2 mM GSH, 0.002% TWEEN 20, 1 μM DTT, 5.0% DMSO. Initial velocity rates were plotted vs. test compound concentration by use of a four-parameter logistics equation (nonlinear regression, sigmoidal dose-response (variable slope), with fixed Hill (1.0) using GraphPad Prism® software for determination of DPP-1 IC50. Within-run assay coefficient of variation (CV) was generally <10%; between-run CV<20%.
Representative compounds of the present invention were tested according to the procedure as described above, with results as listed in Table 3, below.

T1 sequence (P53634 25-463): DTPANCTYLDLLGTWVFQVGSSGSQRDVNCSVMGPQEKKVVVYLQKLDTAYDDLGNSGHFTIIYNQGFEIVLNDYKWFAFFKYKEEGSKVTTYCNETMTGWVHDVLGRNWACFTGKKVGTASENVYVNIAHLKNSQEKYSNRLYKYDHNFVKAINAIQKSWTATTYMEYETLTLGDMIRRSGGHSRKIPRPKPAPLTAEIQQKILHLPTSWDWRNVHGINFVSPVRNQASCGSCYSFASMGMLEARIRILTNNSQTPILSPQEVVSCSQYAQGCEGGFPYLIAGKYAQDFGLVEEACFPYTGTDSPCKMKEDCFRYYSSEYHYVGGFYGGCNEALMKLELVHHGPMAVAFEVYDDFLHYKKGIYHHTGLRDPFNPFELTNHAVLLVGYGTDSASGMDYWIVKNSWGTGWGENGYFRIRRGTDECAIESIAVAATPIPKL

Consider `COc1cccc(CNC(=O)c2ccc3nc(N4CCN(C(=O)[C@@H](N)Cc5cccs5)CC4)sc3c2)c1` [Compound 31], for which the IC50 was 1.2 µM. Then `N[C@@H](Cc1cccs1)C(=O)N1CCN(c2nc3ccc(-c4ccccc4F)cc3s2)CC1` [Compound 16], with 0.58 µM. Then `N[C@@H](Cc1cccs1)C(=O)N1CCN(c2nc3ccc(Br)cc3s2)CC1` [Compound 5], with 1.3 µM. Consider `CC[C@H](N)C(=O)NCCNc1nc2ccccc2s1` [Compound 41, (S)-2-amino-N-(2-(benzo[d]thiazol-2-ylamino)ethyl)butanamide hydrochloride], for which the half-inhibitory concentration (IC50) was 18 µM. With `CCCCNC(=O)c1ccc2nc(N3CCN(C(=O)[C@@H](N)Cc4cccs4)CC3)sc2c1` [Compound 24], the IC50 worked out at 0.82 µM. For the compound `Cc1ccc(-c2ccc3nc(N4CCN(C(=O)[C@@H](N)Cc5cccs5)CC4)sc3c2)cc1` [Compound 8], the half-inhibitory concentration (IC50) was 1.1 µM.

On to `CC[C@H](N)C(=O)NCCNc1nc2ccc(OC)cc2s1` [Compound 43, (S)-2-amino-N-(2-(6-methoxybenzo[d]thiazol-2-ylamino)ethyl)butanamide hydrochloride], for which the 50% inhibitory concentration (IC50) is 12 µM. For `N[C@@H](Cc1cccs1)C(=O)N1CCN(c2nc3ccc(-c4ccc(O)cc4)cc3s2)CC1` [Compound 15] the value was 0.22 µM. Then `CC[C@H](N)C(=O)N1CCN(c2nc3ccc(C(=O)Nc4ccc(OC)c(OC)c4)cc3s2)CC1` [Compound 4, (S)-2-(4-(2-aminobutanoyl)piperazin-1-yl)-N-(3,4-dimethoxyphenyl)benzo[d]thiazole-6-carboxamide hydrochloride], with 3 µM; and `N[C@@H](Cc1cccs1)C(=O)N1CCN(c2nc3ccc(C(=O)Nc4ccc(F)cc4)cc3s2)CC1` [Compound 20], with 0.56 µM; and `N[C@@H](Cc1cccs1)C(=O)N1CCN(c2nc3ccccc3o2)CC1` [Compound 2, (S)-2-amino-1-(4-(benzo[d]oxazol-2-yl)piperazin-1-yl)-3-(thiophen-2-yl)propan-1-one hydrochloride], with 1.4 µM. Regarding `N[C@@H](Cc1cccs1)C(=O)N1CCN(c2nc3ccc(-c4ccc(C(F)(F)F)cc4)cc3s2)CC1` [Compound 14, (S)-2-amino-3-(thiophen-2-yl)-1-(4-(6-(4-(trifluoromethyl)phenyl)benzo[d]thiazol-2-yl)piperazin-1-yl)propan-1-one], the IC50 came out at 1.3 µM. For `N[C@@H](Cc1cccs1)C(=O)NCCNc1nc2ccccc2o1` [Compound 47] the value was 0.7 µM; for `COc1ccc(NC(=O)c2ccc3nc(NCCN(C)C(=O)[C@@H](N)Cc4cccs4)sc3c2)cc1OC` [Compound 48, (S)-2-(2-(2-amino-N-methyl-3-(thiophen-2-yl)propanamido)ethylamino)-N-(3,4-dimethoxyphenyl)benzo[d]thiazole-6-carboxamide], 0.2 µM.

For `COc1ccc(NC(=O)c2ccc3nc(N4CCN(C(=O)[C@@H](N)Cc5ccsc5)CC4)sc3c2)cc1OC` [Compound 12], the IC50 turned out to be 5.6 µM. Then `COc1ccc(NC(=O)c2ccc3nc(N4CCN(C(=O)[C@@H](N)Cc5cccs5)CC4)sc3c2)cc1OC` [Compound 3, (S)-2-(4-(2-amino-3-(thiophen-2-yl)propanoyl)piperazin-1-yl)-N-(3,4-dimethoxyphenyl)benzo[d]thiazole-6-carboxamide hydrochloride], with 0.17 µM. Then `CCCNC(=O)c1ccc2nc(N3CCN(C(=O)[C@@H](N)Cc4cccs4)CC3)sc2c1` [Compound 29], with 2.1 µM; and `N[C@@H](Cc1cccs1)C(=O)N1CCN(c2nc3ccc(C(=O)O)cc3s2)CC1` [Compound 26], with 9.6 µM; and `COc1ccc(NC(=O)c2ccc3nc(N4CCN(C(=O)[C@@H](N)Cc5ccco5)CC4)sc3c2)cc1OC` [Compound 6], with 2.1 µM.

`N[C@@H](Cc1cccs1)C(=O)N1CCN(c2nc3ccc(-c4ccc(F)c(F)c4)cc3s2)CC1` [Compound 11]: the half-maximal inhibitory concentration (IC50) was 0.97 µM.

For `N[C@@H](Cc1cccs1)C(=O)N1CCN(c2nc3ccc(CO)cc3s2)CC1` [Compound 18, (S)-2-amino-1-(4-(6-(hydroxymethyl)benzo[d]thiazol-2-yl)piperazin-1-yl)-3-(thiophen-2-yl)propan-1-one], the concentration for half-maximal inhibition (IC50) turned out to be 0.76 µM. Then `N[C@@H](Cc1cccs1)C(=O)N1CCN(c2nc3ccc(C(=O)NC4CCCC4)cc3s2)CC1` [Compound 19, (S)-2-(4-(2-amino-3-(thiophen-2-yl)propanoyl)piperazin-1-yl)-N-cyclopentylbenzo[d]thiazole-6-carboxamide], with 0.87 µM. Then `CC[C@H](N)C(=O)NCCNc1nc2ccccc2o1` [Compound 45], with about 8 µM; and `N[C@@H](Cc1cccs1)C(=O)N1CCN(c2nc3ccc(-c4cccnc4)cc3s2)CC1` [Compound 13], with 0.37 µM. For `N[C@@H](Cc1cccs1)C(=O)N1CCN(c2nc3ccc(CNC4CCCC4)cc3s2)CC1` [Compound 21, (S)-2-amino-1-(4-(6-((cyclopentylamino)methyl)benzo[d]thiazol-2-yl)piperazin-1-yl)-3-(thiophen-2-yl)propan-1-one] the value was 0.52 µM; for `CN(C)C(=O)c1ccc2nc(N3CCN(C(=O)[C@@H](N)Cc4cccs4)CC3)sc2c1` [Compound 27], 2.2 µM. For `C#CC[C@H](N)C(=O)NCCNc1nc2ccccc2o1` [Compound 44, (S)-2-amino-N-(2-(benzo[d]oxazol-2-ylamino)ethyl)pent-4-ynamide hydrochloride], the concentration for half-maximal inhibition (IC50) is 3.1 µM. Then `N[C@@H](Cc1cccs1)C(=O)N1CCN(c2nc3ccccc3s2)CC1` [Compound 1], with 3.5 µM; and `CCOc1ccc(NC(=O)c2ccc3nc(N4CCN(C(=O)[C@@H](N)Cc5cccs5)CC4)sc3c2)cc1` [Compound 28], with 1.2 µM; and `C#CC[C@H](N)C(=O)NCCNc1nc2ccccc2s1` [Compound 42], with 4.7 µM.

Consider `N[C@@H](Cc1cccs1)C(=O)NCCNc1nc2ccccc2s1` [Compound 46, (S)-2-amino-N-(2-(benzo[d]thiazol-2-ylamino)ethyl)-3-(thiophen-2-yl)propanamide hydrochloride], for which the concentration for half-maximal inhibition (IC50) came to 0.74 µM. Then `N[C@@H](Cc1cccs1)C(=O)N1CCN(c2nc3ccc(C(=O)NC4CCCCC4)cc3s2)CC1` [Compound 30], with 2.3 µM.

By IC50 is commonly meant the concentration that gives 50% inhibition.
